Source: US20210073352A9, “SYSTEM AND METHOD FOR DRUG TARGET AND BIOMARKER DISCOVERY AND DIAGNOSIS USING A MULTIDIMENSIONAL MULTISCALE MODULE MAP” (Data4Cure, Inc., priority 2015, published 2021)
Entries after “also recorded” stand apart in the source; their conditions may differ.

System: 504 cancer cell lines
Test: Drug sensitivity (IC50 index) of cancer cell lines with versus without a mutation in a module, compared by T-test
Format: cell-based
Conditions: for T-Statistic, sensitivity to drug vs mutation in module: T-test of IC50 scores, cell lines with vs without mutation
Excerpt: An inference engine can be used to identify an association between drug sensitivity of a sample and module activity or mutation status. For example, by using a statistical test to compare the IC 50 indexes or other measures of drug sensitivity known to those skilled in the art, for two or more classes of samples determined by the presence or absence of a mutation within a module of interest or determined by a module feature (e.g. high or low activity). A statistical test, such as, for example, a T-test or Wilcoxon test or another test known to those skilled in the art can be used to compare the IC50 scores across two sets of samples. By way of example and not of limitation, an ANOVA analysis can be used to compare such scores over two or more classes of samples.
Change in drug sensitivity conditional on sample class determined by module activity or mutation status can be computed, for example, by using a statistical test by comparing, for example, the IC 50 indexes or other measures of drug sensitivity known to those skilled in the art, for two or more classes of samples. A statistical test, such as, for example, a T-test or Wilcoxon test or another test known to those skilled in the art can be used to compare the IC50 scores across two sets of samples. By way of example and not of limitation, an ANOVA analysis can be used to compare such scores over two or more classes of samples.
The Broad GDAC Firehose provides publicly-available preprocessed TCGA level 3 data and level 4 analyses packaged in a form amenable to immediate algorithmic intake (Marx, V. et al. Nat. Methods 10, 293-297 (2013); incorporated by reference in its entirety). From this resource gene mutations were obtained, copy-number variants and mRNA expression levels (microarray and RNAseq) for human subjects as well as selected clinical data such as overall patient survival and the list of administered oncology drugs for each patient were also obtained. Molecular data (including somatic mutations) as well as drug sensitivity data for 504 cancer cell lines were obtained, deposited and made publicly available by the Sage Bionetworks Synapse platform (Friend, S. et al. Cancer Discov. 2, 658 (2012); hereby incorporated by reference in its entirety).
A multidimensional multiscale map was generated where module colors indicate the change in drug sensitivity depending on the mutation status of a given module (i.e. module can contain a mutation in one of the genes or not) [FIG. 11]. The change is computed by comparing drug sensitivity for samples with or without mutations within genes belonging to a module. Drug sensitivity was measured by the IC 50 index (Soothill, J. S. et al. J. Antimicrob. Chemother. 29, 137-139 (1992); hereby incorporated by reference in its entirety). A T-test was used to compare the IC50 scores across two sets of samples. […] Cell lines with a relevant mutation are indicated as “1” in the boxplot and tend to have lower IC 50 values indicating higher sensitivity to AZD6244.

[1] = mutations in genes of module 16157
[2] = mutations in genes of module 16873
[3] = mutations in genes of module 17552
[4] = mutations in genes of module 17611

SMILES	change in drug sensitivity with module mutation (module number 17454 as printed, FIG. 11)	T-Statistic, sensitivity to drug vs mutation in module (mutation in module 16157)	T-Statistic, sensitivity to drug vs mutation in module (mutation in module 16873)	T-Statistic, sensitivity to drug vs mutation in module (mutation in module 17552)	T-Statistic, sensitivity to drug vs mutation in module (mutation in module 17611)	change in drug sensitivity with module mutation [1]	change in drug sensitivity with module mutation [2]	change in drug sensitivity with module mutation [3]	change in drug sensitivity with module mutation [4]
Cn1cnc2c(F)c(Nc3ccc(Br)cc3Cl)c(C(=O)NOCCO)cc21 [AZD6244]	increased sensitivity	−6.876	−9.937	−8.56	−7.071	more sensitive	more sensitive	increased sensitivity; also recorded: more sensitive	more sensitive
O=C(NOC[C@H](O)CO)c1ccc(F)c(F)c1Nc1ccc(I)cc1F [PD.0325901]	–	−6.692	−10.52	−8.774	−7.111	more sensitive	more sensitive	more sensitive	more sensitive
